Columns and labels:
[1] = biological target: T1, Protein kinase C beta type (Homo sapiens, UniProt P05771); experiment: Inhibition of human Protein kinase C beta 1
[2] = biological target: Protein kinase C delta type (Homo sapiens, UniProt Q05655); experiment: Inhibition of human Protein kinase C delta
[3] = biological target: Protein kinase C gamma type (Homo sapiens, UniProt P05129); experiment: Inhibition of human Protein kinase C gamma
[4] = biological target: T1, Protein kinase C beta type; experiment: Inhibition of human Protein kinase C beta 2
[5] = biological target: Protein kinase C alpha type (Homo sapiens, UniProt P17252); experiment: Inhibition of human Protein kinase C alpha
[6] = biological target: T2, Protein kinase C epsilon type (Homo sapiens, UniProt Q02156); experiment: Inhibition of human Protein kinase C epsilon
T2 sequence (Q02156 whole entry): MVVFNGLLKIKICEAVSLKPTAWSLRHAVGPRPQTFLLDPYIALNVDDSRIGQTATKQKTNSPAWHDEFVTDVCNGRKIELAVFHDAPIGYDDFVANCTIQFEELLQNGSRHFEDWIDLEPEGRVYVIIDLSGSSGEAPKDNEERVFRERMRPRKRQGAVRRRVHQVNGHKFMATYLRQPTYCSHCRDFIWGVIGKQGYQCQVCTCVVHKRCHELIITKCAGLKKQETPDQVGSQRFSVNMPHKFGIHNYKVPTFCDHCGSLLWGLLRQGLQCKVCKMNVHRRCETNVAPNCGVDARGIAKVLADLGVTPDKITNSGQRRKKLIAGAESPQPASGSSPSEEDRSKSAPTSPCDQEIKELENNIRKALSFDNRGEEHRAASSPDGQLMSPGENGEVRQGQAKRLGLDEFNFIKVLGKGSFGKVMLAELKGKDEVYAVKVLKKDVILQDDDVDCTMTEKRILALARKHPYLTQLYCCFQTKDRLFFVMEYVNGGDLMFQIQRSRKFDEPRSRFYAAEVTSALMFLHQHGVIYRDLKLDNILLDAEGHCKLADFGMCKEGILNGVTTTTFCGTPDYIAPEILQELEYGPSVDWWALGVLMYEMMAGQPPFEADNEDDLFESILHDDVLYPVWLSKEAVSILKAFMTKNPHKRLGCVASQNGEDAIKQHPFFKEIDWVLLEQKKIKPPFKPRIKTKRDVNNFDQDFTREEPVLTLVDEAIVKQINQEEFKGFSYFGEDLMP

[7] = biological target: Protein kinase C eta type (Homo sapiens, UniProt P24723); experiment: Inhibition of human protein kinase C eta
[8] = biological target: T3, Protein kinase C zeta type (Homo sapiens, UniProt Q05513); experiment: Inhibition of Protein kinase C zeta
T3 sequence (Q05513 whole entry): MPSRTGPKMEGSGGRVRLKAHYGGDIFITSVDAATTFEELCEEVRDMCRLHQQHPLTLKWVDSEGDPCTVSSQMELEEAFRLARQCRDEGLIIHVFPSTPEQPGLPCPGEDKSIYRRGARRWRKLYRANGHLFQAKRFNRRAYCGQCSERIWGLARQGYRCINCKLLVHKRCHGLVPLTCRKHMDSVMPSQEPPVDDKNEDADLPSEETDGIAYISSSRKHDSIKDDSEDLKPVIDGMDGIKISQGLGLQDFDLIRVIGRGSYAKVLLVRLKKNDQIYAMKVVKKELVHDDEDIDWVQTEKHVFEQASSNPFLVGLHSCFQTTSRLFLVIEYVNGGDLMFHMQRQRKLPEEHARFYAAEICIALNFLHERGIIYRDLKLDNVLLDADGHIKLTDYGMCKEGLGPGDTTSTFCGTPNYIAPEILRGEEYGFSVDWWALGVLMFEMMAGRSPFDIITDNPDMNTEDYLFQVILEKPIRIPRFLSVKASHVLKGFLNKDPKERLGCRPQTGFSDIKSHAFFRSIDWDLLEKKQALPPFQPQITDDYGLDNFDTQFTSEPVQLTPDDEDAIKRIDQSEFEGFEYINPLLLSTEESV

T1 sequence (P05771 whole entry): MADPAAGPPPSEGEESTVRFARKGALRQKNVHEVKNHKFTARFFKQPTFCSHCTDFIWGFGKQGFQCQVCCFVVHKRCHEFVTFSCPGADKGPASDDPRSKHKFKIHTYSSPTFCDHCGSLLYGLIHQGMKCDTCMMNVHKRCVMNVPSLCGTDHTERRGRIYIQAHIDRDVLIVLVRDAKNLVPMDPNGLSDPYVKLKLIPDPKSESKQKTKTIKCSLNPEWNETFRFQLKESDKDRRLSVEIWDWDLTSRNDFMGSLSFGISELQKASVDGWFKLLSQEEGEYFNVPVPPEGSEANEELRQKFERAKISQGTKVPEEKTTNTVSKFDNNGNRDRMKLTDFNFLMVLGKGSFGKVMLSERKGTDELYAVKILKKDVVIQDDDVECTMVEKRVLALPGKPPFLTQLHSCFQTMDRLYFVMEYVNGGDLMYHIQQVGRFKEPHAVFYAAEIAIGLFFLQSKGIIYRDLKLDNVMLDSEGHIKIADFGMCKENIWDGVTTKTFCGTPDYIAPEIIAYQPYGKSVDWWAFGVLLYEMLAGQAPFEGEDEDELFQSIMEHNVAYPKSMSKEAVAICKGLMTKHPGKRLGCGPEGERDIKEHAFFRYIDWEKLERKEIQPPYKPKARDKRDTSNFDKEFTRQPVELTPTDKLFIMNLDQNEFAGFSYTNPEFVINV
Sequence of Protein kinase C eta type (P24723 whole entry): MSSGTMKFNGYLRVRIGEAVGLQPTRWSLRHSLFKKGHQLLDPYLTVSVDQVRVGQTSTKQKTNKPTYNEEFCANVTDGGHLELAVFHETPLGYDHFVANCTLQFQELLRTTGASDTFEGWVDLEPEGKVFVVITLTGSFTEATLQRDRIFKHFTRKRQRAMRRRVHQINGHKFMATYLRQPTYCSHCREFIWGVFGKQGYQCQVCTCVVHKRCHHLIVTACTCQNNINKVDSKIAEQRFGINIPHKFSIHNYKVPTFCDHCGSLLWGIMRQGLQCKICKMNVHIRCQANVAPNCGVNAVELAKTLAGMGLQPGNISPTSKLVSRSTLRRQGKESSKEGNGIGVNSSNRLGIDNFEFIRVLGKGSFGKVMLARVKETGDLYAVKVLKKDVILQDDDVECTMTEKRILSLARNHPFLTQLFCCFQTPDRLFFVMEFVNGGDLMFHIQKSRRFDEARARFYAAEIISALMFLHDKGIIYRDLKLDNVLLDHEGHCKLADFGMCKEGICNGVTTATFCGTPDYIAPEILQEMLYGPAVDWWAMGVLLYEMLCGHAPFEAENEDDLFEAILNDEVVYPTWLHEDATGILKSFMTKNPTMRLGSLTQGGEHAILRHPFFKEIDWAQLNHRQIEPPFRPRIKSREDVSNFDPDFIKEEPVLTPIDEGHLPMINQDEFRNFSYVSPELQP
Sequence of Protein kinase C delta type (Q05655 whole entry): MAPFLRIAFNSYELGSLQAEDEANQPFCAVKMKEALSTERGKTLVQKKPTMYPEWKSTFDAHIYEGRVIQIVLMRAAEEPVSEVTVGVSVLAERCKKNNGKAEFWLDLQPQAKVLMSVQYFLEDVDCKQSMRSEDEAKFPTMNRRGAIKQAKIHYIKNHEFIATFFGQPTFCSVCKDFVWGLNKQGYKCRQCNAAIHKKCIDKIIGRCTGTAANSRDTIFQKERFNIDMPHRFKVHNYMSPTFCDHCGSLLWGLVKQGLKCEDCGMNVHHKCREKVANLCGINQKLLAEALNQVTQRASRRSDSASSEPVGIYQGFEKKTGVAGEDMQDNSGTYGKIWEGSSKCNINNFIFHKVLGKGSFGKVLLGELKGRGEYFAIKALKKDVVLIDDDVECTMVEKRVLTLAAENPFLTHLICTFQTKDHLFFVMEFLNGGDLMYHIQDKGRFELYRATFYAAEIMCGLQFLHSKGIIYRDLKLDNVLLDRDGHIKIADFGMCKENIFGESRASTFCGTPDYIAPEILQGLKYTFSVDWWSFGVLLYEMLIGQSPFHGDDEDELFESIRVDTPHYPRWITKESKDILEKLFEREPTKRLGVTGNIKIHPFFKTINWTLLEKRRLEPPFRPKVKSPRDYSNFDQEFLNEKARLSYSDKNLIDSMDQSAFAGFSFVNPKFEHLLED

Row | SMILES | IC50 [1] [nM] | IC50 [2] [nM] | IC50 [3] [nM] | IC50 [4] [nM] | IC50 [5] [nM] | IC50 [6] [nM] | IC50 [7] [nM] | IC50 [8] [nM]
1 | O=C(N[C@H]1CSCCC[C@H]1OC(=O)c1cc(O)c(C(=O)c2c(O)cccc2C(=O)O)c(O)c1)c1ccc(O)cc1 | 3800 | 90 | 1000 | 2400 | 3300 | 5900 | 100 | –
2 | O=C(N[C@H]1CS(=O)(=O)CCC[C@H]1OC(=O)c1cc(O)c(C(=O)c2c(O)cccc2C(=O)O)c(O)c1)c1ccc(O)cc1 | 5200 | 4000 | 4300 | 3600 | 9600 | 45000 | 830 | > 150000
3 | O=C(N[C@H]1COCCC[C@H]1OC(=O)c1cc(O)c(C(=O)c2c(O)cccc2C(=O)O)c(O)c1)c1ccc(O)cc1 | 2500 | 90 | 1000 | 3300 | 6700 | 16000 | 10 | > 150000

Now those with a lower IC50 [1], led by results:

Row | IC50 [1] [nM] | IC50 [2] [nM] | IC50 [3] [nM] | IC50 [4] [nM] | IC50 [5] [nM] | IC50 [6] [nM] | IC50 [7] [nM] | IC50 [8] [nM] | SMILES
4 | 220 | 90 | 60 | 430 | 270 | 280 | 60 | > 150000 | O=C(N[C@H]1CCCCC[C@H]1OC(=O)c1cc(O)c(C(=O)c2c(O)cccc2C(=O)O)c(O)c1)c1ccc(O)cc1
5 | 32 | 32 | 34 | 44 | 74 | – | 22 | 3500 | O=C(N[C@H]1CNCCC[C@H]1OC(=O)c1cc(O)c(C(=O)c2c(O)cccc2C(=O)O)c(O)c1)c1ccc(O)cc1 (racemic)

From ChEMBL document CHEMBL1128826, “Heteroatom effect in the PKC inhibitory activities of perhydroazepine analogs of balanol” (Bioorg Med Chem Lett, 1995)
